According to article PMC4834588 (British Journal of Clinical Pharmacology, 2016):
Read-outs that look alike come from different tables or passages of the source. Marks after values point to notes of the source that are not given here. Numbered stars: 1 amine (or outer) side, 2 acyl side, 3 side chain; on linkers, the order of the positions; unused ones are H or OH. Bridge positions count the residues as written; N and C are the ends. Square brackets hold non-standard residues; d marks the D form. Peptide text beside a SMILES is read from it. I, II: the chains in the order shown. Actinocin(9to1) = Cc1c2oc3c(C)ccc(C(=O)[*:1])c3nc-2c(C(=O)[*:2])c(N)c1=O; NMeV = CN[C@H](C(=O)O)C(C)C; Sar = CNCC(=O)O

Columns and labels:
[1] = cited from earlier work
[2] = PBPK modelling and simulation (Simcyp version 14 release 1); set-up: species or system human; details: PBPK compound file input; determined from chemical structure
Protocol: Modelling and simulation were performed using Simcyp version 14 release 1 (Simcyp Ltd, a Certara company, Sheffield, UK). The compound file for Act D was compiled using data generated in the methods described above and with additional inputs from web databases and literature sources as shown in Table 2. The Simcyp software provides a framework for assessing the PK of a drug by defining certain characteristics within a compound file. Using this compound file, pharmacokinetic data can then be simulated in individuals of a virtual population of interest, allowing for the impact of inter‐individual differences to be assessed 17, 18.
For the simulation of clinical trial data, information was taken from previous work by Hill et al., who studied 117 patients administered Act D intravenously 8. The population was split into three age categories: 1–<6 (n = 67), 6–<10 (n = 11) and 10–20 years (n = 39). These age bins were further subdivided based on the dose of Act D received (Table 1). […]
The Simcyp simulations output the mean and the 5th and 95th percentile for the concentration−time profile as well as the calculated mean, median and geometric mean of the simulated population. […] In addition, the mean fold‐prediction of AUC against observed data was determined; a two‐fold under‐ or over‐prediction was considered a reasonable prediction and within 1.5‐fold a good prediction. […]

[3] = set-up: method as in PMID 15143082; details: cited from earlier work
[4] = physchem
Text: The method for the generation of Log P values by high performance liquid chromatography (HPLC) was adapted from that described by Zhao et al. 22. Briefly, Log P correlates with the retention time of a compound by a solid phase C18 column. […] By using compounds with known Log P values, a standard curve can be determined and the Log P of a compound of interest obtained by interpolation. A Waters HPLC system, linked to an Agilent fluorescence detector, was used along with a Luna 5 μ C18 50 × 2.0 mm HPLC column preceded by a guard column (Phenomenex, Macclesfield, UK). […] The sample holder for the HPLC was set at 25 °C in order to prevent freezing of the DMSO during the run. The mobile phase consisted of deionized water and acetonitrile with a constant gradient of 40–60%, respectively.
Prior to each run the column was equilibrated to the running conditions for 10 minutes, with the flow rate set to 0.5 ml min^−1. A 20‐μl aliquot of each sample was injected into the column and its retention time measured relative to that of the sodium nitrate peak. Peaks were analysed using Empower software (Waters, Wilmslow, UK).

[5] = cited from earlier work; remark: listed apart in the source
[6] = set-up: method as in http://www.drugbank.ca/drugs/DB00970; details: PBPK compound file input; ref http://www.drugbank.ca/drugs/DB00970; cited from earlier work
[7] = target: ABCB1 (MDR1) (Homo sapiens, UniProt P08183); details: basal to apical, 0.1-100 μM Act D, 1 h, MDCKII-MDR1 minus MDCKII-WT
Sequence of ABCB1 (MDR1) (P08183 whole entry): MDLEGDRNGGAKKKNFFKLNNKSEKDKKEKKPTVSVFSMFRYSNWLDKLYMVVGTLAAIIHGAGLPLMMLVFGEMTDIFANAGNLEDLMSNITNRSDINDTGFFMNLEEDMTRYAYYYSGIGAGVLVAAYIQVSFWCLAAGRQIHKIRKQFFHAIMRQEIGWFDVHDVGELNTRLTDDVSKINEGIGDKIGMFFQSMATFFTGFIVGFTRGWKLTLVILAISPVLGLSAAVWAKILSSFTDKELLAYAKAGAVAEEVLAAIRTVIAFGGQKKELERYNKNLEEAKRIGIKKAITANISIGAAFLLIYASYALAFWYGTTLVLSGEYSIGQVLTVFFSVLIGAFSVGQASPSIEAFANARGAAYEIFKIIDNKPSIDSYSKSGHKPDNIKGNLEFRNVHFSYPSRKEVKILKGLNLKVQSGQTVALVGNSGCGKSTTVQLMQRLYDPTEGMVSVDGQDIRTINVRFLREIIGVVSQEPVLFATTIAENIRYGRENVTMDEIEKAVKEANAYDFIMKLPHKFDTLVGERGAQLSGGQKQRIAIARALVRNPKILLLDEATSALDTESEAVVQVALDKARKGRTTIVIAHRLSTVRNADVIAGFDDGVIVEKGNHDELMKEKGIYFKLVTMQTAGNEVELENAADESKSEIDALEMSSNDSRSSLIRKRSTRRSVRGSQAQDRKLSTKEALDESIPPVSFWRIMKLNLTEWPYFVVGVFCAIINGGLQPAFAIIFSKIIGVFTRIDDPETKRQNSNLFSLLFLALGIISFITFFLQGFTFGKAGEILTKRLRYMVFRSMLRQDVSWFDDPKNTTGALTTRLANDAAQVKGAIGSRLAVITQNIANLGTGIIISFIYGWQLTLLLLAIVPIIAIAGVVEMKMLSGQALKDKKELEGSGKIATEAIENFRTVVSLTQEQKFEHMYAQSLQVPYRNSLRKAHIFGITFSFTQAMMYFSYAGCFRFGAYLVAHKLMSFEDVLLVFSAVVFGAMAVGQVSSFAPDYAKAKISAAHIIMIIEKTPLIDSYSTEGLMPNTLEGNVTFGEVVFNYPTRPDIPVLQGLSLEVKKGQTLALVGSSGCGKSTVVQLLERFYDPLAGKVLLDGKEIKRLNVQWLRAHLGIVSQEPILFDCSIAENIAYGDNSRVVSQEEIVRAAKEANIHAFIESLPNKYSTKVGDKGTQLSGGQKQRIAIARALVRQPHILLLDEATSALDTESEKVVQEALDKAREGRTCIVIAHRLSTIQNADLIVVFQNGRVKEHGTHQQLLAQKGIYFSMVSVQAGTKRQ
Protocol: Polarized Madin‐Darby canine kidney (MDCKII) cell line wild‐type and cells transfected with ABCB1 (MDR1) were obtained from Dr. A.H. Schinkel (Amsterdam, the Netherlands).
For drug transport experiments, 12‐mm Corning Transwell polycarbonate membrane cell culture inserts with 0.4‐μm pores were used (Sigma Aldrich, UK). Cells (passage 8–12) were seeded at 1.4 × 10^4 cells ml^−1 in growth medium and grown on filter for 5 days before the experiment was performed, with medium being changed every 24 hours. […] Growth medium was aspirated from both the apical and basal compartments, and the cells were washed twice with pre‐warmed phosphate‐buffered saline adjusted to pH 7.4. […] Lucifer yellow (60 μM) was added as a paracellular control to test for the formation of a fully confluent monolayer. A limit of 2% Lucifer yellow movement was set as the cutoff with the results for any wells exceeding that threshold being rejected.
The rate of efflux (μM min^−1/10^6 cells) due to MDR1 was determined by subtracting the rate of flux seen across the MDCKII‐WT cells from the flux across the MDCKII‐MDR1 cells.

[8] = Blood:plasma partitioning in whole blood from a healthy donor; format: in vitro ADME; details: human
Protocol: All experiments were performed in triplicate. An aliquot of 180 μl whole blood from a healthy donor was added to 20 μL of each Act D solution (final concentrations 0.4, 2 and 10 μg ml^−1) in Eppendorf tubes, followed by gentle rotation for 1 min before transfer to an incubator (Infors HT Multitron Standard, Infors AG, Basel) at 37 °C for 1 h and 40 μl of plasma was transferred to a new Eppendorf and mixed with 40 μl of fresh blood.
For the blood samples, 40 μl of blood was transferred to a new Eppendorf and mixed with 40 μl blank plasma. All samples were then mixed with 160 μl of the extraction solution and frozen at −80 °C for 1 h. Samples were then centrifuged at 2000 g and 4 °C for 1 h and 100 μl of supernatant from each sample was transferred to HPLC vials and stored at −20 °C overnight. LC–MS analysis was performed as described above for the analysis of transporter kinetic samples. The blood‐to‐plasma ratio was calculated from the following equation (where Kb/p is the whole blood‐to‐plasma partition coefficient, Ke/p is the red blood cell‐to‐plasma partition and H is the haematocrit): (1) Blood‐to‐plasmaKb/p=Ke/p×H+1−H

Structure (SMILES): Cc1c2oc3c(C)ccc(C(=O)N[C@@H]4C(=O)N[C@H](C(C)C)C(=O)N5CCC[C@H]5C(=O)N(C)CC(=O)N(C)[C@@H](C(C)C)C(=O)O[C@@H]4C)c3nc-2c(C(=O)N[C@@H]2C(=O)N[C@H](C(C)C)C(=O)N3CCC[C@H]3C(=O)N(C)CC(=O)N(C)[C@@H](C(C)C)C(=O)O[C@@H]2C)c(N)c1=O [Act D, Actinomycin D] (I: T[dV]P[Sar][NMeV] / II: T[dV]P[Sar][NMeV]; ester I:1-I:C, II:1-II:C; linker I:N-II:N via Actinocin(9to1))
- CL Renal ([1]; PBPK input, CV of 60% used, ref Tattersall et al. 5): 1.8 (l h^−1) ^*
- Administered dose eliminated in the urine and faeces ([1]; after nine days): approximately 35%
- Compound type [2]: Neutral
- Likelihood of developing SOS ([3]; patients over three years of age): 4%
- Chance of developing SOS ([3]; patients under three years of age): 15%
- Experimental Log P [4]: 4.77
- chromatographic logP [4]: 4.47
- Mean observed AUC ± SD (AUC0-26h) ([5]; age 1–<6 years, dose 0.60 mg m^−2 IV): 0.082 ± 0.018 µg·h/mL
- Mean observed AUC ± SD (AUC0-26h) ([5]; age 1–<6 years, dose 0.76 mg m^−2 IV): 0.063 ± 0.008 µg·h/mL
- Mean observed AUC ± SD (AUC0-26h) ([5]; age 1–<6 years, dose 1.01 mg m^−2 IV): 0.071 ± 0.033 µg·h/mL
- Mean observed AUC ± SD (AUC0-26h) ([5]; age 1–<6 years, dose 1.12 mg m^−2 IV): 0.082 ± 0.016 µg·h/mL
- Mean observed AUC ± SD (AUC0-26h) ([5]; age 1–<6 years, dose 1.48 mg m^−2 IV): 0.111 ± 0.016 µg·h/mL
- Mean observed AUC ± SD (AUC0-26h) ([5]; age 1–<6 years, dose 1.55 mg m^−2 IV): 0.128 ± 0.051 µg·h/mL
- Mean observed AUC ± SD (AUC0-26h) ([5]; age 6–<10 years, dose 0.77 mg m^−2 IV): 0.08 ± 0.028 µg·h/mL
- Mean observed AUC ± SD (AUC0-26h) ([5]; age 6–<10 years, dose 1.50 mg m^−2 IV): 0.13 ± 0.012 µg·h/mL
- Mean observed AUC ± SD (AUC0-26h) ([5]; age 10–20 years, dose 0.74 mg m^−2 IV): 0.045 ± 0.008 µg·h/mL
- Mean observed AUC ± SD (AUC0-26h) ([5]; age 10–20 years, dose 1.04 mg m^−2 IV): 0.05 ± 0.012 µg·h/mL
- Mean observed AUC ± SD (AUC0-26h) ([5]; age 10–20 years, dose 1.48 mg m^−2 IV): 0.12 ± 0.044 µg·h/mL
- Mean AUC0-26h observed ([5]; observed in patients (abstract)): 0.093 µg·h/mL
- Fraction unbound [6]: 0.95
- Maximum rate of flux (J max) [7]: 1142 μM min^−1/10^6 cells
- Michaelis–Menten constant (K m) [7]: 20 µM
- blood plasma ratio at 1 h ([8]; 37 °C, 1 h, 95% confidence interval 0.03, read-out: Mean blood-to-plasma ratio): 0.62
- blood plasma ratio at 1 h ([8]; whole blood spiked with 0.2 to 10 μg ml^−1, read-out: Blood-to-plasma ratios (range observed)): 0.59 to 0.65

Structure (SMILES): C[C@@H]1C[C@H]2[C@@H]3CCC4=CC(=O)C=C[C@]4(C)[C@@]3(F)[C@@H](O)C[C@]2(C)[C@@]1(O)C(=O)CO [Dexamethasone]
- chromatographic logP ([4]; reversed-phase C18 HPLC column (Luna 5 µ C18 50 × 2.0 mm)): 1.8
